Reference: patent US10766888B1, “HMOX1 inducers” (Mitobridge Inc., priority 2019, dated 2020)

Test: PD study: compound concentration in mouse liver
Assay type: in vivo, C57BL/6 mice
Conditions: male, C57BL/6, mouse, 50 mg/kg, 50 mpk oral
Description: 9-10 week old male C57BL/6 mice were dosed orally with 50 mg/kg of vehicle or compound formulated in 5% w/v tween 80 and 0.5% methyl cellulose. At indicated time points (3 and 6 hours or or 4 and 8 hours post-dosing as shown in the results below), whole blood was collected, animal was sacrificed and liver was collected. Blood samples were transferred to vials containing 4 μL of 10% w/v EDTA, centrifuged at 6000 rpm for 8 in below 10° C. to obtain plasma. Samples were frozen and later processed for HMOX1 protein levels as indicated below: […]

- concentration at 4 h (4 hours (Study 702), read-out: Liver Conc uM (4 h)): 11 µM
- concentration at 8 h (8 hours (Study 702), read-out: Liver Conc uM (8 h)): 4.9 µM
Compound: Cn1c(Nc2nc3ccccc3o2)nc2cc(C(=O)NCCOCCO)ccc21 [Example 17, 2-(benzo[d]oxazol-2-ylamino)-N-(2-(2-hydroxyethoxy)ethyl)-1-methyl-1H-benzo[d]imidazole-5-carboxamide]
